Measurements from the supplement of paper PMC11061612.

Experiments:
Assay in all cases: combination Emax (second highest fraction inhibited in the dose matrix, 72 h); higher = more inhibition; extreme values may be limits of the assay
EW-1 (Ewing's Sarcoma) = system: EW-1 (Ewing's Sarcoma)
Procedure, shortened: (§1)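 After 24 hours at 37°C and 5% CO2 in 1536-well plates, cells in DMEM/F12 or RPMI plus 10% FBS received two-drug dose matrices for 72 hours. Viability came from CellTiter-Glo 2.0 luminescence and was scaled as inhibition, anchored at 0 by vehicle wells and at 1 by blank wells. Combination Emax is taken as the second-highest inhibition in the matrix, and Bliss excess as the observed combination effect less EA + EB − EA·EB, with EA and EB the single-agent effects.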

[1] = system: LC-1-sq (Squamous Cell Lung Carcinoma)
Procedure, shortened: as §1

[2] = system: Mo-T (Other Blood Carcinomas)
Procedure, shortened: as §1

[3] = system: SW982 (Other Solid Carcinomas)
Procedure, shortened: as §1

| SMILES | combination Emax (EW-1 (Ewing's Sarcoma)) | combination Emax [1] | combination Emax [2] | combination Emax [3] |
| --- | --- | --- | --- | --- |
| C=CCn1c(=O)c2cnc(Nc3ccc(N4CCN(C)CC4)cc3)nc2n1-c1cccc(C(C)(C)O)n1 [AZD1775] + C1CN(CCC1(C(=O)N[C@@H](CCO)C2=CC=C(C=C2)Cl)N)C3=NC=NC4=C3C=CN4 [Capivasertib] (first compound max 3 µM, partner max 3 µM) | 0.963 | 0.761 | 0.894 | 0.674 |
| C=CCn1c(=O)c2cnc(Nc3ccc(N4CCN(C)CC4)cc3)nc2n1-c1cccc(C(C)(C)O)n1 [AZD1775] + C[C@@H]1COCCN1C2=NC(=NC(=C2)C3(CC3)[S@](=N)(=O)C)C4=C5C=CNC5=NC=C4 [AZD6738] (first compound max 1 µM, partner max 10 µM) | 0.935 | 0.938 | 0.61 | 0.807 |
| C=CCn1c(=O)c2cnc(Nc3ccc(N4CCN(C)CC4)cc3)nc2n1-c1cccc(C(C)(C)O)n1 [AZD1775] + O=C(c1cc(Cc2n[nH]c(=O)c3ccccc23)ccc1F)N1CCN(C(=O)C2CC2)CC1 [Olaparib] (first compound max 1 µM, partner max 10 µM) | 0.907 | 0.901 | 0.456 | 0.787 |
| CCN(CCO)CCCOc1ccc2c(Nc3cc(CC(=O)Nc4cccc(F)c4)[nH]n3)ncnc2c1 [AZD2811] + C=CCn1c(=O)c2cnc(Nc3ccc(N4CCN(C)CC4)cc3)nc2n1-c1cccc(C(C)(C)O)n1 [AZD1775] (first compound max 1 µM, partner max 1 µM) | 0.827 | 0.864 | 0.311 | 0.742 |
| CCN(CCO)CCCOc1ccc2c(Nc3cc(CC(=O)Nc4cccc(F)c4)[nH]n3)ncnc2c1 [AZD2811] + C[C@@H]1COCCN1C2=NC(=NC(=C2)C3(CC3)[S@](=N)(=O)C)C4=C5C=CNC5=NC=C4 [AZD6738] (first compound max 1 µM, 7x7, partner max 10 µM) | 0.852 | 0.823 | 0.556 | 0.71 |
| CCN(CCO)CCCOc1ccc2c(Nc3cc(CC(=O)Nc4cccc(F)c4)[nH]n3)ncnc2c1 [AZD2811] + O=C(c1cc(Cc2n[nH]c(=O)c3ccccc23)ccc1F)N1CCN(C(=O)C2CC2)CC1 [Olaparib] (first compound max 1 µM, 7x7, partner max 10 µM) | 0.709 | 0.305 | 0.369 | 0.658 |
| CN(CCO)CC[C@H](CSc1ccccc1)Nc1ccc(S(=O)(=O)NC(=O)c2ccc(N3CCC([C@@H](O)c4ccccc4-c4ccc(Cl)cc4)CC3)cc2)cc1S(=O)(=O)C(F)(F)F [AZD4320] + C=CCn1c(=O)c2cnc(Nc3ccc(N4CCN(C)CC4)cc3)nc2n1-c1cccc(C(C)(C)O)n1 [AZD1775] (first compound max 1 µM, partner max 1 µM) | 1 | 0.869 | 0.984 | 0.953 |
| CN(CCO)CC[C@H](CSc1ccccc1)Nc1ccc(S(=O)(=O)NC(=O)c2ccc(N3CCC([C@@H](O)c4ccccc4-c4ccc(Cl)cc4)CC3)cc2)cc1S(=O)(=O)C(F)(F)F [AZD4320] + CN(C)CCCOc1ccc(-c2ccc3ncc4c(c3c2)n(C2CCOCC2)c(=O)n4C)cn1 [AZD0156] (first compound max 1 µM, 7x7, partner max 1 µM) | 0.705 | 0.217 | 0.483 | 0.225 |
| COc1nnc2ccc(N3CCC(c4ccc(OCCN5CCN(C)C(=O)[C@H]5C)cc4)CC3)nn12 [AZD5153] + C=CCn1c(=O)c2cnc(Nc3ccc(N4CCN(C)CC4)cc3)nc2n1-c1cccc(C(C)(C)O)n1 [AZD1775] (first compound max 1 µM, partner max 1 µM) | 0.883 | 0.665 | 0.729 | 0.825 |
| COc1nnc2ccc(N3CCC(c4ccc(OCCN5CCN(C)C(=O)[C@H]5C)cc4)CC3)nn12 [AZD5153] + CC1(C)CCC(CN2CCN(c3ccc(C(=O)NS(=O)(=O)c4ccc(NCC5CCOCC5)c([N+](=O)[O-])c4)c(Oc4cnc5[nH]ccc5c4)c3)CC2)=C(c2ccc(Cl)cc2)C1 [Venetoclax] (first compound max 1 µM, 7x7, partner max 1 µM) | 0.56 | 0.603 | 0.611 | 0.767 |
| COc1nnc2ccc(N3CCC(c4ccc(OCCN5CCN(C)C(=O)[C@H]5C)cc4)CC3)nn12 [AZD5153] + CCN(CCO)CCCOc1ccc2c(Nc3cc(CC(=O)Nc4cccc(F)c4)[nH]n3)ncnc2c1 [AZD2811] (first compound max 1 µM, 7x7, partner max 1 µM) | 0.64 | 0.609 | 0.599 | 0.807 |
| COc1nnc2ccc(N3CCC(c4ccc(OCCN5CCN(C)C(=O)[C@H]5C)cc4)CC3)nn12 [AZD5153] + C[C@@H]1COCCN1C2=NC(=NC(=C2)C3(CC3)[S@](=N)(=O)C)C4=C5C=CNC5=NC=C4 [AZD6738] (first compound max 1 µM, 7x7, partner max 10 µM) | 0.953 | 0.783 | 0.746 | 0.843 |
| COc1nnc2ccc(N3CCC(c4ccc(OCCN5CCN(C)C(=O)[C@H]5C)cc4)CC3)nn12 [AZD5153] + Cc1c2c(nn1C)CSCc1cc(n(C)n1)CSc1cc(c3ccccc3c1)OCCCc1c(C(=O)O)n(C)c3c-2c(Cl)ccc13 [AZD5991] (first compound max 1 µM, 7x7, partner max 1 µM) | 0.751 | 0.771 | 0.616 | 0.771 |
| COc1nnc2ccc(N3CCC(c4ccc(OCCN5CCN(C)C(=O)[C@H]5C)cc4)CC3)nn12 [AZD5153] + Cn1cnc2c(F)c(Nc3ccc(Br)cc3Cl)c(C(=O)NOCCO)cc21 [Selumetinib] (first compound max 1 µM, 7x7, partner max 10 µM) | 0.618 | 0.677 | 0.659 | 0.789 |
| Cc1c2c(nn1C)CSCc1cc(n(C)n1)CSc1cc(c3ccccc3c1)OCCCc1c(C(=O)O)n(C)c3c-2c(Cl)ccc13 [AZD5991] + C1CN(CCC1(C(=O)N[C@@H](CCO)C2=CC=C(C=C2)Cl)N)C3=NC=NC4=C3C=CN4 [Capivasertib] (first compound max 1 µM, 7x7, partner max 3 µM) | 0.415 | 0.217 | 0.281 | 0.192 |
| Cc1c2c(nn1C)CSCc1cc(n(C)n1)CSc1cc(c3ccccc3c1)OCCCc1c(C(=O)O)n(C)c3c-2c(Cl)ccc13 [AZD5991] + C=CCn1c(=O)c2cnc(Nc3ccc(N4CCN(C)CC4)cc3)nc2n1-c1cccc(C(C)(C)O)n1 [AZD1775] (first compound max 1 µM, partner max 1 µM) | 0.974 | 0.851 | 0.562 | 0.798 |
| Cc1c2c(nn1C)CSCc1cc(n(C)n1)CSc1cc(c3ccccc3c1)OCCCc1c(C(=O)O)n(C)c3c-2c(Cl)ccc13 [AZD5991] + CC1(C)CCC(CN2CCN(c3ccc(C(=O)NS(=O)(=O)c4ccc(NCC5CCOCC5)c([N+](=O)[O-])c4)c(Oc4cnc5[nH]ccc5c4)c3)CC2)=C(c2ccc(Cl)cc2)C1 [Venetoclax] (first compound max 1 µM, 7x7, partner max 1 µM) | 0.684 | 0.322 | 0.196 | 0.192 |
| Cc1c2c(nn1C)CSCc1cc(n(C)n1)CSc1cc(c3ccccc3c1)OCCCc1c(C(=O)O)n(C)c3c-2c(Cl)ccc13 [AZD5991] + CCN(CCO)CCCOc1ccc2c(Nc3cc(CC(=O)Nc4cccc(F)c4)[nH]n3)ncnc2c1 [AZD2811] (first compound max 1 µM, 7x7, partner max 1 µM) | 0.482 | 0.428 | 0.189 | 0.688 |
| Cc1c2c(nn1C)CSCc1cc(n(C)n1)CSc1cc(c3ccccc3c1)OCCCc1c(C(=O)O)n(C)c3c-2c(Cl)ccc13 [AZD5991] + CN(C)CCCOc1ccc(-c2ccc3ncc4c(c3c2)n(C2CCOCC2)c(=O)n4C)cn1 [AZD0156] (first compound max 1 µM, 7x7, partner max 1 µM) | 0.375 | 0.258 | 0.229 | 0.258 |
